This is an account of results in article PMC10674894 (Viruses, 2023).

The subject of one data set is CHIKV DRDE-07. Description: In vitro screening against CHIKV (CPE inhibition and MTT cell viability). The conditions noted are these: Table S1, CHIKV-infected Vero cells; for % Cell viability: 72 hpi, MTT assay; for CPE: arbitrary score of cytopathic effect at >48 hpi. The class given is cell-based, chikungunya virus.
In the next data set the test system is Vero cells. Description: Cytotoxicity MTT assay in Vero cells (MNTD, CC50). The class given is cell-based, African green monkey. The note with it: Table S1; Vero cells. For orientation: Formazan colour is commonly taken as a measure of viable cells.

As for `CC1(C)CC(=O)C2=C(C1)OC1=C(C(=O)CC(C)(C)C1)C2c1ccccc1Cl` [DCR124, 9‐(2‐chlorophenyl)‐3,3,6,6‐tetramethyl‐2,3,4,5,6,7,8,9‐octahydro‐1H‐xanthene‐1,8‐dione], in the data set with CHIKV DRDE-07, the “% Cell viability” value was determined as 11.05% and the CPE entry was “++++ (>60% (++++))”. The compound further had an MNTD in the data set on Vero cells of 125 µM.
The matching figures for `COc1cccc(C2C3=C(CC(C)(C)CC3=O)OC3=C2C(=O)CC(C)(C)C3)c1` [DCR125, 9‐(3‐methoxyphenyl)‐3,3,6,6‐tetramethyl‐2,3,4,5,6,7,8,9‐octahydro‐1H‐xanthene‐1,8‐dione]: 11.19%, “++++ (>60% (++++))” and 125 µM.
Take `CC1(C)CC(=O)C2=C(C1)OC1=C(C(=O)CC(C)(C)C1)C2c1ccc([N+](=O)[O-])cc1` [DCR126, 3,3,6,6‐tetramethyl‐9‐(4‐nitrophenyl)‐2,3,4,5,6,7,8,9‐octahydro‐1H‐xanthene‐1,8‐dione]: in the data set with CHIKV DRDE-07, the “% Cell viability” value stood at 17.99% and the CPE result is “++++ (>60% (++++))”. Besides, the MNTD in the data set with Vero cells was 15.6 µM.
The matching figures for `Cc1ccc(C2C3=C(CC(C)(C)CC3=O)OC3=C2C(=O)CC(C)(C)C3)cc1` [DCR127, 3,3,6,6‐tetramethyl‐9‐(4‐methylphenyl)‐2,3,4,5,6,7,8,9‐octahydro‐1H‐xanthene‐1,8‐dione]: 10.21%, “++++ (>60% (++++))” and 125 µM.
For `COc1ccc(C2C3=C(CC(C)(C)CC3=O)OC3=C2C(=O)CC(C)(C)C3)cc1` [DCR128, 9‐(4‐methoxyphenyl)‐3,3,6,6‐tetramethyl‐2,3,4,5,6,7,8,9‐octahydro‐1H‐xanthene‐1,8‐dione], in the data set on CHIKV DRDE-07, the “% Cell viability” value was 11.01% and the CPE entry is recorded as “++++ (>60% (++++))”. Besides, the MNTD in the data set on Vero cells is 125 µM.
With `CC1(C)CC(=O)C2=C(C1)OC1=C(C(=O)CC(C)(C)C1)C2c1cccc([N+](=O)[O-])c1` [DCR129, 3,3,6,6‐tetramethyl‐9‐(3‐nitrophenyl)‐2,3,4,5,6,7,8,9‐octahydro‐1H‐xanthene‐1,8‐dione], in the data set on CHIKV DRDE-07, the “% Cell viability” value is listed as 16.85% and the CPE result was “++++ (>60% (++++))”. Besides, in the data set on Vero cells, the MNTD is 31.25 µM.
As for `CCOc1cc(C2C3=C(CC(C)(C)CC3=O)OC3=C2C(=O)CC(C)(C)C3)ccc1O` [DCR130, 9‐(3‐ethoxy‐4‐hydroxyphenyl)‐3,3,6,6‐tetramethyl‐2,3,4,5,6,7,8,9‐octahydro‐1H‐xanthene‐1,8‐dione], in the data set on CHIKV DRDE-07, the “% Cell viability” value came out at 17.21% and the CPE result was “++++ (>60% (++++))”. This compound also yielded an MNTD with Vero cells of 15.6 µM.
The corresponding values for `COc1cc(Br)cc(C2C3=C(CC(C)(C)CC3=O)OC3=C2C(=O)CC(C)(C)C3)c1` [DCR131, 9‐(3‐bromo‐5‐methoxyphenyl)‐3,3,6,6‐tetramethyl‐2,3,4,5,6,7,8,9‐octahydro‐1H‐xanthene‐1,8‐dione] are 8.01%, “++++ (>60% (++++))” and 125 µM.
As for `CC1(C)CC(=O)C2=C(C1)OC1=C(C(=O)CC(C)(C)C1)C2c1ccccn1` [DCR132, 3,3,6,6‐tetramethyl‐9‐(pyridin‐2‐yl)‐2,3,4,5,6,7,8,9‐octahydro‐1H‐xanthene‐1,8‐dione], in the data set with CHIKV DRDE-07, the “% Cell viability” value came out at 9.06% and the CPE entry is listed as “++++ (>60% (++++))”. The compound also came in with an MNTD in the data set with Vero cells of 125 µM.
The corresponding values for `CC1(C)CC(=O)C2=C(C1)OC1=C(C(=O)CC(C)(C)C1)C2c1ccc(C2C3=C(CC(C)(C)CC3=O)OC3=C2C(=O)CC(C)(C)C3)cc1` [DCR133, 3,3,6,6‐tetramethyl‐9‐[4‐(3,3,6,6‐tetramethyl‐1,8‐dioxo‐dodecahydro‐1H‐xanthen‐9‐yl)phenyl]‐2,3,4,5,6,7,8,9‐octahydro‐1H‐xanthene‐1,8‐dione] are 11.14%, “++++ (>60% (++++))” and 125 µM.
